# Values joined by “and” are separate entries in the source; they are usually repeats but may differ in a detail not shown here. Equal values may be shown once.
# Key:
# [1] = system: patients undergoing coronary artery bypass graft (CABG) surgery; experiment: Myocardial ischemia by continuous Holter ECG and TEE (Phase 2); type: in vivo, human; conditions: for Mean duration of postbypass ECG ischemic episodes: patients with events, placebo 175 ± 156, p=0.04; for Incidence of prebypass ECG ischemia: placebo 0%; for Incidence of ECG ischemia (postbypass) / Incidence of preoperative (baseline) ECG ischemia: placebo 18%; for Incidence of ECG ischemia (postbypass): p=0.42; for Incidence of prebypass TEE ischemia: placebo 19%; for Incidence of prebypass TEE ischemia / Ischemic minutes per hour monitored, postbypass: p=0.22; for Incidence of postbypass TEE ischemia: placebo 29%, p=0.86; for Ischemic minutes per hour monitored, postbypass: placebo 35 ± 14; for Mean area under the S-T curve (AUC), postbypass ECG ischemia: placebo -258 ± 317, p=0.24; for Incidence of preoperative (baseline) ECG ischemia: before drug; for Mean area under the S-T segment: post-bypass, placebo 35±14
# Description: During surgery, anesthesia was maintained by continuous infusion of fentanyl and midazolam. Routine clinical parameters were recorded using standard operating room monitoring equipment. Continuous 2-lead Holter ECG and TEE data were recorded. Standard surgical procedures (e.g., aorta cross-clamping, crystalloid cardioplegia, cardio-pulmonary bypass, hypothermia) were used. Anastomoses were constructed, aorta cross-clamp removed and patients were discontinued from bypass when body temperature was 37° C. The quality of anastomosis was judged by the surgeon. Difficulty in weaning from bypass was judged by need for one or more of the following: pacemaker, return to bypass, balloon pump or vasopressor administration. Hemodynamic measurements, including heart rate, arterial blood pressure, pulmonary capillary wedge pressure and cardiac output, were recorded before sternotomy, 15 and 30 min after bypass and upon chest closure. Radial artery and pulmonary artery pressures, myocardial and whole body temperature, O2 saturation, end-tidal CO2 and arterial blood gases were measured, and ECG recordings were obtained as clinically indicated. Hemodynamic variables (blood pressure, heart rate, pulmonary capillary wedge pressure) were controlled within 20% of baseline using prescribed regimens.
# A twelve-lead ECG was obtained on arrival in the intensive care unit and during post-operative days 1, 2, 3 and at hospital discharge. Creatinine phosphokinase MB band (CK-MB) was obtained every 8 hours for 48 hours and when indicated. Radio-nuclide ventriculography for ejection fraction and wall motion score was done about 14 days post-operation and as close to hospital discharge as possible. Other tests and measurements (e.g., chest x-ray, pulmonary artery wedge pressure (PCWP) were performed when clinically indicated for diagnosis or evaluation of myocardial infarction, or congestive heart failure. Timing and dose of all cardiovascular medications within 48 hours after surgery were recorded. The total dose of all analgesics during the 24-hour post-operative period was recorded. Fluid intake and output (e.g., blood replacement and urine output) were recorded for 48 hours. The type and duration of inotropic support and antiarrhythmic intervention required were recorded through 24 hours after surgery. Two-channel Holter recordings were obtained during 3 periods, the eight hours prior to intubation, from intubation through the end of surgery, and for an additional 24-48 hours after surgery.
# The evaluation of Holter tapes and echo videotapes was performed centrally by two independent blinded observers; if there was disagreement between the two, a third observer was used to "break the tie." The same observers were used throughout the study.
# 5. Ischemic Events--TEE. Ischemic event data were evaluated during two time periods--pre-bypass and post-bypass, using the following analysis:
# a) The number of patients with ischemic events was compared across the groups using Fisher's exact test. This analysis also included pre-post changes and pre- and post-combined.
# b) For patients with events, analysis of the mean duration and severity of ischemia was done. Using only the patients with ischemic events reduced the number included in the analysis, but allowed determination of whether the drug is effective in reducing the magnitude of the events, should they occur. […] For severity (an […] variable, 0-4 scale) and number of events, the Kruskal-Wallis nonparametric test was used. The same comparisons were done with the active treatment groups combined.
# 6. Ischemic Events--ECG. The analysis of ischemic events indicated by ECG was done using the same methods as the echo events. The time periods analyzed were: (a) baseline (Holter start to infusion start), (b) pre-bypass (infusion start to bypass start), (c) post-bypass (sideclamp off to infusion end), and (d) post-treatment (infusion end to Holter end). […]
# [2] = system: patients undergoing coronary artery bypass graft (CABG) surgery; experiment: Transmural and non-transmural myocardial infarction, CK-MB and CK release, clinical outcomes (Phase 2); type: in vivo, human; conditions: for Number of patients developing transmural myocardial infarction (new Q-wave and CK-MB ≥ 50 I.U.): placebo 5 of 37; for Number of patients with non-transmural myocardial infarction (CK-MB ≥ 50 I.U.): placebo 17
# Description: Creatinine phosphokinase MB band (CK-MB) was obtained every 8 hours for 48 hours and when indicated. Radio-nuclide ventriculography for ejection fraction and wall motion score was done about 14 days post-operation and as close to hospital discharge as possible. Other tests and measurements (e.g., chest x-ray, pulmonary artery wedge pressure (PCWP) were performed when clinically indicated for diagnosis or evaluation of myocardial infarction, or congestive heart failure. Timing and dose of all cardiovascular medications within 48 hours after surgery were recorded. The total dose of all analgesics during the 24-hour post-operative period was recorded. Fluid intake and output (e.g., blood replacement and urine output) were recorded for 48 hours. The type and duration of inotropic support and antiarrhythmic intervention required were recorded through 24 hours after surgery. Two-channel Holter recordings were obtained during 3 periods, the eight hours prior to intubation, from intubation through the end of surgery, and for an additional 24-48 hours after surgery. […] For the diagnosis of myocardial infarction, ECG tracings and CK-MB values were assessed centrally by observers blinded to treatment. The difficulty of weaning the patient from bypass, if any, was compared between placebo and treatment groups by noting need for one or more of the following: pacemaker, return to bypass, balloon pump or use of vasopressors. 4. Clinical Outcome. Outcomes of cardiac death, MI, CHF and life-threatening dysrhythmia were compared. Specific endpoints for analysis were combined into a dichotomous endpoint, i.e., at least one of the four events listed above occurs versus none occurs. Fisher's exact test for small samples was used to compare the rates of clinical outcome between the three treatment groups. […] Blood Chemistry--CPK, CK-MB, uric acid, glucose.
# [3] = high dose (0.1 mg/kg/min), 0.1 mg/kg
# [4] = low dose (0.05 mg/kg/min), 0.05 mg/kg
# [5] = 0.05 mg/kg/min, n=41, ICU + 8 HR
# [6] = 0.05 mg/kg/min, n=41, ICU + 16 HR
# [7] = 0.05 mg/kg/min, n=41, ICU + 32 HR
# [8] = 0.05 mg/kg/min, n=41, ICU + 40 HR
# [9] = 0.05 mg/kg/min, n=41, ICU + 48 HR
# [10] = 0.05 mg/kg/min, n=41, discharge
# [11] = 0.10 mg/kg/min, n=35, ICU + 8 HR
# [12] = 0.10 mg/kg/min, n=35, ICU + 16 HR
# [13] = 0.10 mg/kg/min, n=35, ICU + 32 HR
# [14] = 0.10 mg/kg/min, n=35, ICU + 40 HR
# [15] = 0.10 mg/kg/min, n=35, ICU + 48 HR
# [16] = 0.10 mg/kg/min, n=35, discharge
structure (smiles),measurement,setting,value
"NC(=O)c1ncn([C@@H]2O[C@H](CO)[C@@H](O)[C@H]2O)c1N [AICA riboside, 5-amino-1-β-D-ribofuranosyl-imidazole-4-carboxamide]",Mean duration of postbypass ECG ischemic episodes,[1]; [3],36 ± 20 min and 36 min
same,Incidence of prebypass ECG ischemia,[1]; high dose (0.1 mg/kg/min),3%
same,Incidence of ECG ischemia (postbypass),[1]; high dose (0.1 mg/kg/min),11%
same,Incidence of prebypass TEE ischemia,[1]; high dose (0.1 mg/kg/min),6%
same,Incidence of postbypass TEE ischemia,[1]; high dose (0.1 mg/kg/min),24%
same,"Ischemic minutes per hour monitored, postbypass",[1]; [3],27 ± 20 min/h
same,"Mean area under the S-T curve (AUC), postbypass ECG ischemia",[1]; high dose (0.1 mg/kg/min),-52 ± 28 mm-min
same,Incidence of preoperative (baseline) ECG ischemia,[1]; high dose group (0.1 mg/kg/min),14%
same,Mean area under the S-T segment,[1]; high dose,27±20
same,Mean duration of postbypass ECG ischemic episodes,[1]; [4],125 ± 80 min and 125 min
same,Incidence of prebypass ECG ischemia,[1]; low dose (0.05 mg/kg/min),3%
same,Incidence of ECG ischemia (postbypass),[1]; low dose (0.05 mg/kg/min),22%
same,Incidence of prebypass TEE ischemia,[1]; low dose (0.05 mg/kg/min),15%
same,Incidence of postbypass TEE ischemia,[1]; low dose (0.05 mg/kg/min),27%
same,"Ischemic minutes per hour monitored, postbypass",[1]; [4],40 ± 15 min/h
same,"Mean area under the S-T curve (AUC), postbypass ECG ischemia",[1]; low dose (0.05 mg/kg/min),-172 ± 144 mm-min
same,Incidence of preoperative (baseline) ECG ischemia,[1]; low dose group (0.05 mg/kg/min),14%
same,Mean area under the S-T segment,[1]; low dose,40±15
same,Effect on postsurgical myocardial ischemia,[1]; patients undergoing CABG surgery,limits the extent of postsurgical myocardial ischemia
same,"CK, mean baseline","[2]; 0.05 mg/kg/min group, n=41",89.2 +/- 30.9 U/L
same,"CK-MB, mean baseline","[2]; 0.05 mg/kg/min group, n=41",0.2 +/- 0.1 U/L
same,"CK-MB, mean change from baseline","[2]; 0.05 mg/kg/min, n=41, 24 HR POST",23.5 +/- 5.0 U/L
same,"CK, mean change from baseline","[2]; 0.05 mg/kg/min, n=41, ICU + 0",346.2 +/- 45.3 U/L
same,"CK-MB, mean change from baseline","[2]; 0.05 mg/kg/min, n=41, ICU + 0",24.5 +/- 2.7 U/L
same,"CK, mean change from baseline",[2]; [5],839.2 +/- 89.3 U/L
same,"CK-MB, mean change from baseline",[2]; [5],37.1 +/- 5.1 U/L
same,"CK, mean change from baseline",[2]; [6],1040.6 +/- 120.3 U/L
same,"CK-MB, mean change from baseline",[2]; [6],30.8 +/- 4.9 U/L
same,"CK, mean change from baseline",[2]; [7],874.7 +/- 126.3 U/L
same,"CK-MB, mean change from baseline",[2]; [7],9.2 +/- 2.5 U/L
same,"CK, mean change from baseline",[2]; [8],806.6 +/- 145.6 U/L
same,"CK-MB, mean change from baseline",[2]; [8],7.7 +/- 2.2 U/L
same,"CK, mean change from baseline",[2]; [9],784.0 +/- 149.9 U/L
same,"CK-MB, mean change from baseline",[2]; [9],3.9 +/- 1.5 U/L
same,"CK, mean change from baseline",[2]; [10],87.8 +/- 46.6 U/L
same,"CK-MB, mean change from baseline",[2]; [10],0.0 +/- 0.1 U/L
same,Number of patients developing transmural myocardial infarction (new Q-wave and CK-MB ≥ 50 I.U.),"[2]; 0.05 mg/kg/min, n=41, p=0.42",2 patients
same,Number of patients with non-transmural myocardial infarction (CK-MB ≥ 50 I.U.),"[2]; 0.05 mg/kg/min, n=41, p=0.10",13 patients
same,Incidence of transmural myocardial infarction,"[2]; 0.05 mg/kg/min, n=41, placebo […], p=0.42",4.9%
same,"CK, mean baseline","[2]; 0.10 mg/kg/min group, n=35",66.6 +/- 11.3 U/L
same,"CK-MB, mean baseline","[2]; 0.10 mg/kg/min group, n=35",0.1 +/- 0.1 U/L
same,"CK-MB, mean change from baseline","[2]; 0.10 mg/kg/min, n=35, 24 HR POST",21.1 +/- 5.3 U/L
same,"CK, mean change from baseline","[2]; 0.10 mg/kg/min, n=35, ICU + 0",386.1 +/- 51.8 U/L
same,"CK-MB, mean change from baseline","[2]; 0.10 mg/kg/min, n=35, ICU + 0",25.2 +/- 2.3 U/L
same,"CK, mean change from baseline",[2]; [11],869.6 +/- 143.7 U/L
same,"CK-MB, mean change from baseline",[2]; [11],34.3 +/- 6.2 U/L
same,"CK, mean change from baseline",[2]; [12],891.0 +/- 148.3 U/L
same,"CK-MB, mean change from baseline",[2]; [12],25.9 +/- 6.7 U/L
same,"CK, mean change from baseline",[2]; [13],894.0 +/- 142.9 U/L
same,"CK-MB, mean change from baseline",[2]; [13],12.8 +/- 4.5 U/L
same,"CK, mean change from baseline",[2]; [14],641.7 +/- 119.7 U/L
same,"CK-MB, mean change from baseline",[2]; [14],7.1 +/- 3.0 U/L
same,"CK, mean change from baseline",[2]; [15],499.8 +/- 100.5 U/L
same,"CK-MB, mean change from baseline",[2]; [15],3.5 +/- 2.1 U/L
same,"CK, mean change from baseline",[2]; [16],31.9 +/- 22.0 U/L
same,"CK-MB, mean change from baseline",[2]; [16],0.4 +/- 0.4 U/L
same,Number of patients developing transmural myocardial infarction (new Q-wave and CK-MB ≥ 50 I.U.),"[2]; 0.10 mg/kg/min, n=35, p=0.42",2 patients
same,"Non-transmural MI, combined treatment groups versus placebo","[2]; 0.05 + 0.1 mg/kg/min combined, p=0.046",statistically significant
same,Number of patients with non-transmural myocardial infarction (CK-MB ≥ 50 I.U.),"[2]; high dose (0.1 mg/kg/min; Table 6 head prints 0.01), n=35, p=0.10",8 patients
same,Incidence of non-transmural myocardial infarction (CK-MB ≥ 50 I.U.),"[2]; high dose (0.1 mg/kg/min; Table 6 head prints 0.01), n=35, placebo 47%, p=0.10",23.5%
same,"Rate of perioperative infarction, all drug-treated patients vs placebo","[2]; including first 5 which received higher doses, p<0.05",statistically significant reduction
same,"Other outcomes (CHF requiring balloon pump or LVAD, cardiac death, life-threatening arrhythmia)","[2]; three groups, exception patient A39 (intra-aortic balloon pump)",none of the other outcomes being evaluated
same,Total CK levels compared with placebo; same trend for CK-MB release,"[2]; treated groups, across all patients",trend toward a reduction in total CK levels in the treated groups compared with placebo
same,Reduction in the frequency of post-operative myocardial infarctions,"[2]; treatment groups vs placebo, p=0.15, not significant",64%

# Source: patent US5817640A (Gensia Pharmaceuticals, priority 1995, dated 1998)
